Tests used:
[1] = system: Monocotyledonous and dicotyledonous test plants; experiment: Herbicidal action before emergence of the plants (pre-emergence action), greenhouse pot test, 9-level rating after 4 weeks; assay type: in vivo; set-up: key: 9-level scale: 1 = complete damage, 9 = no effect; conditions: 250 g/ha, rated after 4 weeks, 9-level scale
How it was run: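 Compounds applied pre-emergence as a spray (500 l water/ha) of aqueous suspension or emulsion onto soil immediately after sowing mono- and dicot species in pots. Greenhouse-grown; damage rated after 4 weeks on a 9-level scale (1=complete damage, 9=no effect).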

[2] = system: Monocotyledonous and dicotyledonous test plants; experiment: Post-emergence herbicidal action, greenhouse pot test, sprayed at the 2- to 3-leaf stage, 9-level rating after 2 to 3 weeks; assay type: in vivo; set-up: key: 9-level scale: 1 = complete damage, 9 = no effect; conditions: 250 g/ha, rated after 2 to 3 weeks, 9-level scale
How it was run: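 Plants grown in standard soil in pots; test substances sprayed at the 2- to 3-leaf stage at optimum dosage (500 l water/ha) as aqueous suspension or emulsion from formulated concentrates. Plants then kept in the greenhouse under optimum conditions; rated after 2 to 3 weeks on a 9-level scale (1=complete damage, 9=no effect).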

| SMILES | Pre-emergence action rating, Abutilon [1] | Pre-emergence action rating, Amaranthus [1] | Pre-emergence action rating, Chenop. [1] | Pre-emergence action rating, Digitaria [1] | Pre-emergence action rating, Echino. [1] | Pre-emergence action rating, Panicum [1] | Post-emergence action rating, Abutilon [2] | Post-emergence action rating, Amaranth [2] | Post-emergence action rating, Chenop. [2] | Post-emergence action rating, Digitaria [2] | Post-emergence action rating, Echino. [2] | Post-emergence action rating, Ipopur. [2] | Post-emergence action rating, Panicum [2] | Post-emergence action rating, Xanth. [2] |
| --- | --- | --- | --- | --- | --- | --- | --- | --- | --- | --- | --- | --- | --- | --- |
| O=C(C1=C(O)C2CCC(C2)C1=O)c1ccc(C(F)(F)F)nc1COCC1CO1 (stereo not drawn) [A57-B52 (H5), 4-Hydroxy-3-(2-oxiranylmethoxymethyl-6-trifluoromethylpyridine-3-carbonyl)-bicyclo[3.2.1]oct-3-en-2-one] | 1 | 1 | 1 | 1 | 1 | 1 | 1 | 1 | 1 | 1 | 2 | 2 | 1 | 2 |
| O=C(C1=C(O)C2CCC(C2)C1=O)c1ccc(C(F)(F)F)nc1COCC1CCCCO1 (stereo not drawn) [A63-B52] | 5 | 3 |  | 3 | 1 | 2 | 2 | 2 | 2 | 2 | 2 | 2 | 1 | 2 |
| O=C(C1=C(O)C2CCC(C2)C1=O)c1ccc(C(F)(F)F)nc1COCc1ccccc1 (stereo not drawn) [A67-B52] | 3 | 2 | 1 | 2 | 2 | 1 | 2 | 2 | 1 | 2 | 2 | 3 | 2 | 2 |
| COCCOCc1nc(C(F)(F)Cl)ccc1C(=O)C1=C(O)C2CCC(C2)C1=O (stereo not drawn) [A556-B52] | 1 | 2 | 1 | 1 | 1 | 1 | 1 | 2 | 1 | 2 | 2 | 2 | 1 | 2 |
| COCCOCc1nc(C(F)F)ccc1C(=O)C1=C(O)C2CCC(C2)C1=O (stereo not drawn) [A646-B52] | 1 | 2 | 1 | 1 | 1 | 1 | 2 | 2 | 1 | 2 | 2 | 2 | 1 | 2 |
| COCCOCc1c(C(=O)C2=C(O)C3CCC(C3)C2=O)ccc(C(F)(F)F)[n+]1[O-] (stereo not drawn) [A736-B52] | 1 | 1 | 1 | 4 | 2 | 1 | 1 | 1 | 1 | 1 | 2 | 2 | 1 | 2 |
| CS(=O)(=O)CCOCc1nc(C(F)(F)F)ccc1C(=O)C1=C(O)C2CCC(C2)C1=O (stereo not drawn) [A819-B52] | 1 | 2 | 1 | 9 | 7 | 7 | 2 | 2 | 1 | 3 | 2 | 2 | 2 | 2 |
| COc1cc(OC)nc(SCc2nc(C(F)(F)F)ccc2C(=O)C2=C(O)C3CCC(C3)C2=O)n1 (stereo not drawn) [A830-B52] | 5 | 4 | 4 | 9 | 3 | 4 | 5 | 4 | 4 | 9 | 3 | 5 | 4 | 4 |
| CC(=O)OCc1nc(C(F)(F)F)ccc1C(=O)C1=C([O-])C2CCC(C2)C1=O.[K+] (stereo not drawn) [A833-B52 (K+)] | 1 | 2 | 1 | 2 | 2 | 1 | 3 | 3 | 3 | 3 | 4 | 3 | 3 | 2 |
| CC(=O)OCc1nc(C(F)(F)F)ccc1C(=O)C1=C(O)C2CCC(C2)C1=O (stereo not drawn) [A833-B52, (H4), 3-(2-Hydroxy-4-oxobicyclo[3.2.1]oct-2-en-3-carbonyl)-6-trifluoromethylpyridin-2-yl methyl acetate] | 1 | 1 | 1 | 1 | 1 | 1 | 3 | 2 | 3 | 3 | 4 | 2 | 3 | 1 |
| O=C(C1=C(O)C2CCC(C2)C1=O)c1ccc(C(F)(F)F)nc1COCC(F)(F)F (stereo not drawn) [A834-B52] | 1 | 2 | 1 | 1 | 1 | 1 | 2 | 1 | 1 | 1 | 2 | 2 | 1 | 2 |

— patent US7378375B1, “Substituted pyridine herbicides” (Syngenta Crop Protection, Inc., priority 2000, dated 2008)
